Results taken from US9181234B2, “Antibacterial compounds” (priority 2010, dated 2015).
Values after ≈ are worked out from the molar mass of the structure shown.

Columns and labels:
[1] = test system: Haemophilus influenzae (Isolate ID ATCC 49247); assay: Antibacterial activity, MIC, H. influenzae; assay type: cell-based; conditions: Haemophilus influenzae, ATCC49247; Gram negative strain; broth microdilution or agar dilution
Outline: (§1)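 CLSI-guided dilution susceptibility testing (broth or agar) gave the MIC for each strain.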

[2] = test system: Enterococcus faecalis (Isolate ID ATCC 29212); assay: Antibacterial activity, MIC, E. faecalis; assay type: cell-based; conditions: Enterococcus faecalis, ATCC29212; Gram positive strain; broth microdilution or agar dilution
Experimental: Bacterial Assay: Determination of Antibacterial Activity
Compounds of the invention were tested for antimicrobial activity by susceptibility testing in liquid or on solid media. MICs for compounds against each strain were determined by the broth microdilution or agar dilution method according to the guidelines of the Clinical Laboratories and Standards Institute, formerly the National Committee for Clinical Laboratory Standards (Clinical Laboratories and Standards Institute. Methods for Dilution Antimicrobial Susceptibility Tests for Bacteria That Grow Aerobically; Approved Standard—Seventh Edition. Document M7-A7. CLSI, Wayne, Pa., 2006; Clinical Laboratories and Standards Institute. The gram positive bacterial strains tested include S. aureus (Staphylococcus aureus (Isolate ID ATCC 29213)), E. faecalis (Enterococcus faecalis (Isolate ID ATCC 29212)) and S. pyogenes (Streptococcus pyogenes (Isolate ID ATCC 51339)). The gram negative bacterial strains tested include H. influenzae (Haemophilus influenzae (Isolate ID ATCC 49247))

[3] = test system: Streptococcus pyogenes (Isolate ID ATCC 51339); assay: Antibacterial activity, MIC, S. pyogenes; assay type: cell-based; conditions: Streptococcus pyogenes, ATCC51339, Gram positive strain; broth microdilution or agar dilution
Outline: as §1

physchem = conditions: pH 7.4, aqueous buffer, kinetic from dmso stock
Outline: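 DMSO doubling dilutions were diluted twenty-fold into 100 mM citrate (pH 4), PBS (pH 7.4) or carbonate-bicarbonate (pH 9). After 24 h equilibration at room temperature, absorbance was read at 620 nm. The reported value is the highest concentration without measurable precipitate.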

[4] = test system: Staphylococcus aureus (Isolate ID ATCC 29213); assay: Antibacterial activity, MIC, S. aureus; assay type: cell-based; conditions: Staphylococcus aureus, ATCC29213, Gram positive strain; broth microdilution or agar dilution
Outline: as §1

Row | SMILES | MIC [1] | MIC [2] | MIC [3] | solubility at 24 h (physchem; Solubility (pH 7.4)) | solubility at 24 h (physchem; Solubility Range) | MIC [4] | solubility at 24 h (physchem; Max Solubility) | solubility at 24 h (physchem; Solubility Range (maximum solubility))
1 | CCNC(=O)Nc1nc2cc(-c3cnc(N4CCC(C)(C(=O)O)CC4)nc3)cc(-c3ncccc3C#N)c2s1 [Compound 13] | 1 to 16 µg/mL (≈ 1.84 to 29.5 µM) | ≤ 0.25 µg/mL | ≤ 0.25 µg/mL | 100 µg/mL (≈ 184 µM) | 12.5 to 400 µg/mL (≈ 23 to 737 µM) | ≤ 0.25 µg/mL |  | 
2 | CCNC(=O)Nc1nc2cc(-c3cnc(N4CCC(C)(C(=O)O)CC4)nc3)cc(-c3ccc(C#N)cn3)c2s1 [Compound 14] | 0.25 to 1 µg/mL (≈ 0.461 to 1.84 µM) | ≤ 0.25 µg/mL | ≤ 0.25 µg/mL | ≥ 800 µg/mL | > 800 µg/mL | ≤ 0.25 µg/mL |  | 
3 | CCNC(=O)Nc1nc2cc(-c3cnc(N4CCC(C)(C(=O)O)CC4)nc3)cc(-c3cc(OC)ncn3)c2s1 [Compound 15] | 0.25 to 1 µg/mL (≈ 0.456 to 1.82 µM) | ≤ 0.25 µg/mL | ≤ 0.25 µg/mL | ≥ 800 µg/mL | > 800 µg/mL | ≤ 0.25 µg/mL |  | 
4 | CCNC(=O)Nc1nc2cc(-c3cnc(N4CCC(C)(C(=O)O)CC4)nc3)cc(-c3cc(C#N)ccn3)c2s1 [Compound 16] | 1 to 16 µg/mL (≈ 1.84 to 29.5 µM) | ≤ 0.25 µg/mL | ≤ 0.25 µg/mL | 6.25 µg/mL (≈ 11.5 µM) | < 12.5 µg/mL | ≤ 0.25 µg/mL |  | 
5 | CCNC(=O)Nc1nc2cc(-c3cnc(N4CCC(C)(C(=O)O)CC4)nc3)cc(-c3cc(OC)ccn3)c2s1 [Compound 17] | 0.25 to 1 µg/mL (≈ 0.457 to 1.83 µM) | ≤ 0.25 µg/mL | ≤ 0.25 µg/mL | ≥ 800 µg/mL | > 800 µg/mL | ≤ 0.25 µg/mL |  | 
6 | CCNC(=O)Nc1nc2cc(-c3cnc(N4CCC(C)(C(=O)O)CC4)nc3)cc(-c3ncccc3F)c2s1 [Compound 18] | 1 to 16 µg/mL (≈ 1.87 to 29.9 µM) | ≤ 0.25 µg/mL | ≤ 0.25 µg/mL | ≥ 800 µg/mL | > 800 µg/mL | ≤ 0.25 µg/mL | ≥ 800 µg/mL | > 800 µg/mL
7 | CCNC(=O)Nc1nc2cc(-c3cnc(N4CCC(C)(C(=O)O)CC4)nc3)cc(-c3ncco3)c2s1 [Compound 19] | 1 to 16 µg/mL (≈ 1.97 to 31.5 µM) | ≤ 0.25 µg/mL | ≤ 0.25 µg/mL | ≥ 800 µg/mL | > 800 µg/mL | 0.25 to 1 µg/mL (≈ 0.493 to 1.97 µM) |  | 
8 | CCNC(=O)Nc1nc2cc(-c3cnc(N4CCC(C)(C(=O)O)CC4)nc3)cc(-c3cncs3)c2s1 [Compound 20] | 1 to 16 µg/mL (≈ 1.91 to 30.6 µM) | ≤ 0.25 µg/mL | ≤ 0.25 µg/mL | ≥ 800 µg/mL | > 800 µg/mL | 0.25 to 1 µg/mL (≈ 0.477 to 1.91 µM) |  | 
9 | CCCCC#Cc1cc(-c2cnc(N3CCC(C)(C(=O)O)CC3)nc2)cc2nc(NC(=O)NCC)sc12 [Compound 22] | > 16 µg/mL | ≤ 0.25 µg/mL | 1 to 16 µg/mL (≈ 1.92 to 30.7 µM) | ≥ 800 µg/mL | > 800 µg/mL | 0.25 to 1 µg/mL (≈ 0.48 to 1.92 µM) |  | 
10 | CCNC(=O)Nc1nc2cc(-c3cnc(N4CCC(C)(C(=O)O)CC4)nc3)cc(-c3csc(OC)n3)c2s1 [Compound 23, 1-[5-[2-(ethylcarbamoylamino)-7-(2-methoxythiazol-4-yl)-1,3-benzothiazol-5-yl]pyrimidin-2-yl]-4-methyl-piperidine-4-carboxylic acid] | 1 to 16 µg/mL (≈ 1.81 to 28.9 µM) | ≤ 0.25 µg/mL | ≤ 0.25 µg/mL | ≥ 800 µg/mL | > 800 µg/mL | ≤ 0.25 µg/mL |  | 
11 | CCNC(=O)Nc1nc2cc(-c3cnc(N4CCC(C)(C(=O)O)CC4)nc3)cc(-c3cnn(C)c3)c2s1 [Compound 24] | 1 to 16 µg/mL (≈ 1.92 to 30.7 µM) | ≤ 0.25 µg/mL | 0.25 to 1 µg/mL (≈ 0.48 to 1.92 µM) | ≥ 800 µg/mL | > 800 µg/mL | 1 to 16 µg/mL (≈ 1.92 to 30.7 µM) |  | 
12 | CCNC(=O)Nc1nc2cc(-c3cnc(N4CCC(C)(C(=O)O)CC4)nc3)cc(-c3cn[nH]c3)c2s1 [Compound 25] | > 16 µg/mL | 0.25 to 1 µg/mL (≈ 0.493 to 1.97 µM) | 0.25 to 1 µg/mL (≈ 0.493 to 1.97 µM) | ≥ 800 µg/mL | > 800 µg/mL | > 16 µg/mL |  | 
13 | CCNC(=O)Nc1nc2cc(-c3cnc(N4CCC(C)(C(=O)O)CC4)nc3)cc(O)c2s1 [Compound 26, 1-[5-[2-(ethylcarbamoylamino)-7-hydroxy-1,3-benzothiazol-5-yl]pyrimidin-2-yl]-4-methyl-piperidine-4-carboxylic acid] | > 16 µg/mL | 1 to 16 µg/mL (≈ 2.19 to 35 µM) | 1 to 16 µg/mL (≈ 2.19 to 35 µM) | ≥ 800 µg/mL | > 800 µg/mL | > 16 µg/mL |  | 
